Common to all, as to assay type: cell-based, human
For experiment [1], the system named is Mel Im cells. Briefly: FACS analysis of apoptosis (Annexin / propidium iodide). From the text:
(§1) FIGS. 4A through 4H depict that small Molecule KRAS Inhibition Reduces Proliferation and Induces Apoptosis in Melanoma. FIGS. 4A and 4B show proliferation (slope of cell index) of Mel Juso (FIG. 4A) and Mel Im (FIG. 4B) cells treated with DMSO and different concentrations of the KRAS small molecule inhibitor Deltarasin (DR). The cell index as dimensionless parameter for cell proliferative ability was used to determine the half maximal inhibitory concentration (IC50, small graphs) of DR. […] FIG. 4D illustrates exemplary images of different melanoma cell lines (Mel Im, Mel Juso and Mel Ei) treated with 5 μM DR or 5 μM DMSO, respectively, for 24 hours. FIGS. 4E and 4F show images of fibroblast cell lines derived from two different donors (F1, F2) and melanocytes (NHEM) treated DR (20 μM, 48 hours) or DMSO (FIG. 4E), and lactate dehydrogenase (LDH) quantification (FIG. 4F) in cell supernatants (optic density, OD) of NHEM after treatment with low dose DMSO, DR (5 μM), and DR (10 μM), respectively.
(§2) FIGS. 5A through 5D show time-dependent measurement of colony diameters (exemplary data in top panels) in three-dimensional, anchorage-independent “colony-forming” assays (FIGS. 5A and 5B: Mel Im, FIGS. 5C and 5D: Mel Juso). Exemplary Images (middle) and corresponding quantification of colony diameters (bottom panels, summarized data of n=3 experiments at day 19 after seeding) are also depicted. Treatments were performed in four different groups (10 μM DMSO, 5 μM Deltarasin=DR, M PLX-4032=PLX (vemurafenib), or combination of 10 μM PLX+[…]). Effects on i) colony formation (FIGS. 5A and 5C, treatment at day 1) and ii) proliferation of pre-formed colonies (FIGS. 5B and 5D, treatment at day 7 and 13) were analyzed. […] FIG. 5F show images of PLX-primary resistant Mel Juso cells treated with DMSO, DR (5 μM), high dose PLX (20 μM) and a combination of 5 μM DR+10 μM PLX for 24 hours. […] Cells were treated for 5 hours with DMSO, 5 μM Deltarasin (DR), 10 μM PLX, or a combination of 10 μM PLX and 5 μM DR. According to exemplary images for Annexin and propidium iodide (PI) staining are depicted for Mel Im. (FIG. 5H) Mel Im and Mel Juso were transfected with control si-RNA (si-CTR) or with si-KRAS (si-KR). Two subgroups (blue and red) were additionally treated with 10 μM PLX (Vemurafenib) for 24 hours, with subsequent flow cytometric quantification of tumor cell apoptosis according to FIG. 5G. Exemplary images for Annexin and propidium iodide (PI) staining are depicted for Mel Im.

Experiment [2] concerns Mel Juso cells. Described as above.
Source text: as §1, §2

In a further experiment the test system is Htz19 melanoma cells. Briefly: FACS analysis of apoptosis. As to conditions: PLX 24 hours, alone or combined with RNAi-mediated KRAS knockdown.
The subject of experiment [3] is Mel Im cells. As to the kind of experiment: long-term treatment, emergence of surviving tumor cells and drug resistance. As to conditions: 21 days, PLX increasing doses up to 20 μM, or 10 μM PLX + 5 μM DR.
Source text: as §1
FIGS. 6A through 6H depict that KRASi Prevents Emergence of Resistance and KRAS Expression is Regulated Dynamically in Acquired Resistance to BRAFi. […] Asterisks indicate significant differences (p<0.05) as compared to according control (0 μM PLX). […] Densitometric values (DM) are also shown, representing relative quantifications. […]

The subject of experiment [4] is Mel Juso cells. Briefly: three-dimensional, anchorage-independent colony-forming assay. Conditions: Mel Juso (BRAFi primary resistant); DR 5 μM, PLX 10 μM, alone or combined. From the text: FIGS. 5A through 5D show time-dependent measurement of colony diameters (exemplary data in top panels) in three-dimensional, anchorage-independent “colony-forming” assays (FIGS. 5A and 5B: Mel Im, FIGS. 5C and 5D: Mel Juso). Exemplary Images (middle) and corresponding quantification of colony diameters (bottom panels, summarized data of n=3 experiments at day 19 after seeding) are also depicted. […] Effects on i) colony formation (FIGS. 5A and 5C, treatment at day 1) and ii) proliferation of pre-formed colonies (FIGS. 5B and 5D, treatment at day 7 and 13) were analyzed. […] Cells were treated for 5 hours with DMSO, 5 μM Deltarasin (DR), 10 μM PLX, or a combination of 10 μM PLX and 5 μM DR. […] (FIG. 5H) Mel Im and Mel Juso were transfected with control si-RNA (si-CTR) or with si-KRAS (si-KR). Two subgroups (blue and red) were additionally treated with 10 μM PLX (Vemurafenib) for 24 hours, with subsequent flow cytometric quantification of tumor cell apoptosis according to FIG. 5G.

In experiment [5] the test system is Mel Juso cells. As to the kind of experiment: ERK-activation in BRAFi primary resistant cells. Conditions: PLX.
In another experiment the test system is SkMel28-wt. Briefly: cell proliferation (slope of cell index). As to conditions: 10 μM PLX vs DMSO. The method, then: (§3) FIGS. 6A through 6H depict that KRASi Prevents Emergence of Resistance and KRAS Expression is Regulated Dynamically in Acquired Resistance to BRAFi. […] Asterisks indicate significant differences (p<0.05) as compared to according control (0 μM PLX). FIGS. 6E and 6F are exemplary Western blot images (FIG. 6E) depicting immunostaining of AKT, pAKT, ERK, pERK, and KRAS. Densitometric values (DM) are also shown, representing relative quantifications. Resistant cell lines 451Lu-R and SkMel28-R were treated with 0, 5, or 10 μM PLX for 8 hours, and according summarized quantification of KRAS protein expression (n=3, FIG. 6F).

A further experiment has as its system 451Lu-wt. As to the kind of experiment: cell proliferation (slope of cell index). Conditions: 10 μM PLX vs DMSO.
In experiment [6] the test system is resistant cell clones (SkMel28-R, 451Lu-R). Briefly: real-time cell proliferation of BRAFi-resistant melanoma cells. As to conditions: both resistant cell clones; 10 μM PLX vs DMSO. The method, then:
as §3
FIGS. 7A through 7I present KRAS Inhibition Re-sensitizes BRAF Inhibitor Resistant Cells for Inhibition of Proliferation and Induction of Apoptosis. […] show real-time cell proliferation (exemplary proliferation curve depicted in FIG. 6A, summarized slopes of proliferation curves depicted in FIG. 6B) of PLX-resistant cells treated with si-KRAS (KR) or control si-RNA (CTR), respectively, in combination with 5 or 10 μM PLX. FIGS. 7C and 7D show real-time cell proliferation (exemplary proliferation curve depicted in […], summarized slopes of proliferation curves depicted in FIG. 7D) of PLX-resistant cells treated with Deltarasin (DR) or DMSO, respectively, in combination with 5 or 10 μM PLX, according to FIGS. 7A and 7B. […]

The subject of experiment [7] is KRAS mRNA in SkMel28-R and 451Lu-R cells. Briefly: qRT-PCR of KRAS mRNA expression after PLX treatment. Conditions: resistant and some non-resistant melanoma cell clones; 24-hour and 48-hour PLX treatment. As for the experimental part: as §3
Experiment [8] relates to resistant cell lines 451Lu-R and SkMel28-R. Briefly: Western blot of AKT, pAKT, ERK, pERK and KRAS. The method, then: as §3
After 48 hours of transfection with either control si-RNA (CTR) or si-KRAS (KR), cells were treated with different concentrations of PLX (0-10 μM). Data are represented as mean±SD in FIGS. 6A-6G and as mean±SEM in FIG. 6H. Ns: non-significant. *: p<0.05.

[9] abbreviates: 10 μM PLX 24 hours, alone (si-CTR) or combined with RNAi-mediated KRAS knockdown.
Setting [10] is: 5 hours, 5 μM DR, 10 μM PLX or combination.

With `CCCS(=O)(=O)Nc1ccc(F)c(C(=O)c2c[nH]c3ncc(-c4ccc(Cl)cc4)cc23)c1F` [PLX], the results for the “apoptosis (FACS)” value in the experiment with Mel Im cells [1] (setting [9]), in the experiment with Mel Juso cells [2] (setting [9]) and in the experiment with Htz19 melanoma cells were “slightly enhanced apoptosis”, “did not cause apoptosis” and “slightly enhanced apoptosis”, respectively. In addition, the “apoptosis (FACS), short treatment” value in the experiment with Mel Im cells [1] (setting [10]) and with Mel Juso cells [2] (setting [10]) was “insufficient to induce apoptosis” throughout. Further, in the experiment on Mel Im cells [3], the “emergence of surviving tumor cells (acquired resistance)” value was “survival of a moderate proportion of tumor cells”. Moreover, the “three-dimensional colony formation and colony proliferation” value in the experiment with Mel Juso cells [4] is reported as “enhanced”. For the same molecule, the ERK-activation entry with Mel Juso cells [5] was “enhanced”. Further, the cell proliferation result in the experiment on SkMel28-wt is on record as “inhibited proliferation”; with 451Lu-wt, “inhibited proliferation”; in [6] it was “enhanced”. Moreover, in experiment [7], the “KRAS mRNA expression (qRT-PCR)” value was “dose-dependent slight dynamic alteration”. For the same molecule, in experiment [8] (PLX 0, 5 or 10 μM), the “ERK activation (pERK)” value was “increased ERK activation”. Also, in experiment [8] (PLX doses), the “activation of AKT (pAKT/AKT)” value was “dose-dependently increased”. In addition, the “KRAS protein expression (Western blot)” value in experiment [8] (eight hours, 0, 5 or 10 μM PLX) is given as “dose-dependently enhanced”.

The values above are taken from patent publication US20200147058A1, “KRAS INHIBITOR FOR USE IN TREATING CANCER” (Friedrich-Alexander-Universitat Erlangen-Numberg, priority 2016, published 2020).
